Values joined by “and” are separate entries in the source; they are usually repeats but may differ in a detail not shown here. Equal entries are not always repeated. “Also recorded” adds a separate entry of the source.
Experiments:
[1] = system: HEK293 cells; experiment: Voltage sensitivity of fluorescence in voltage-clamped HEK cells (whole-cell recording); format: cell-based, human; conditions: for voltage sensitivity ΔF/F per 100 mV: HEK293 cells voltage-clamped at −60 mV holding potential
From the text: Membrane voltage of cells loaded with VF1.4.Cl or VF2.4.Cl were controlled by making tight-seal whole-cell recordings. Cells were maintained at a holding potential of −60 mV and stepped for 50 ms to various depolarizing and hyperpolarizing potentials (FIG. 5A), while simultaneously acquiring epifluorescence images. For both sensors, depolarizing steps result in fluorescence increases while hyperpolarizing steps decrease fluorescence intensity, in keeping with our proposed mechanism. […] For di-4-ANEPPS, typical values are 0.08-0.12% per mV. The larger changes for VF1.4.Cl and VF2.4.Cl compared to di-4-ANEPPS are somewhat expected, since a PeT-based voltage sensor samples the entire emission spectrum, whereas electrochromic dyes are limited to the edge of the spectrum only. For both probes, the voltage responses are linear across the physiologically relevant ranges of −100 mV to +100 mV. To assess the speed of the optical response to voltage, VF2.4.Cl signals were monitored in response to voltage steps of 100 mV from a holding potential of −60 mV.
We characterized the voltage sensitivity of all three indicators by making tight-seal whole-cell recordings of HEK293 cells stained with the VF sensors. Cells were voltage-clamped at −60 mV holding potential and sequentially stepped to depolarizing and hyperpolarizing potentials at 20-mV increments (FIG. 9B). For all three dyes, depolarizing steps produced fluorescence increases, whereas hyperpolarizing steps produced fluorescence decreases, in keeping with the proposed PeT mechanism. The fluorescence response is linear over the range of −100 mV to +100 mV (FIG. 9C), with voltage sensitivities ΔF/F per 100 mV of 20±1% for VF1.4.Cl and 25±1% for VF2.4.Cl. This statistically significant increase in voltage sensitivity (P<0.05, two-tailed Student t test) is expected upon increasing the length of the molecular wire, and is 2.5- to 4-times more sensitive than di-4-ANEPPS, which, in our hands, gives sensitivities of between 6% and 10% ΔF/F per 100 mV. […] To investigate the speed of response of VF probes, we again made whole-cell recordings of cells stained with VF2.4.Cl, applied 100-mV depolarizing steps from a holding potential of −60 mV, and recorded both the electrophysiological signals and the optical signals.
Electrophysiological recordings of HEK293 cells and cultured neurons were performed with an Axopatch 200A or 200B amplifier (Molecular Devices) at room temperature. The signals were digitized with Digidata 1332A and recorded with pCLAMP 9 software (Molecular Devices) on a PC. Analysis of electrophysiological data was done with AxoGraph X (AxoGraphX), pCLAMP 9, and/or ClampFit (Molecular Devices). For most experiments the extracellular solution consisted of (in mM) 145 NaCl, 20 glucose, 10 HEPES, 3 KCl, 2 CaCl2, 1 MgCl2 (pH 7.35, 310 mOsm). The intracellular solution contained (in mM) 115 potassium gluconate, 10 BAPTA tetrapotassium salt, 10 HEPES, 5 NaCl, 10 KCl, 2 ATP disodium salt, 0.3 GTP trisodium salt (pH 7.25, 290 mOsm).
For studies to determine excitation sensitivity of dyes, illumination was provided by a Polychrom IV light source (T.I.L.L. Photonics GMBH) with a mechanical shutter (Uniblitz VS25). For all other studies, light was provided by an Xenon arc lamp powered by an Optiquip Power supply (Optiquip) with a mechanical shutter controlled by a Lambda 10-2 controller (Sutter). […]

[2] = system: leech Retzius cell; experiment: Optical recording of spontaneous activity in leech ganglia; format: cell-based, Hirudo medicinalis; conditions: sampling at 50 Hz, stained 15 min
Description: A more stringent test of the usefulness of the PeT-based VSD is to determine whether it can accurately measure subthreshold activity in heterogeneous preparations. For this test we used leech ganglia, because their neurons have been well studied using both electrophysiological and other VSD recordings (14, 33-35). We isolated a midbody ganglion and stained it with VF2.1.Cl for 15 min at 22° C. (FIG. 13C). Insertion of a sharp electrode (25 MΩ) into a Retzius cell to enabled recording of its spontaneous activity while simultaneously recording the fluorescence signals from the same cell. […] The optically recorded spikes are truncated as a result of undersampling the optical signal; sampling at a higher rate (722 Hz) fully resolved the action potentials, but introduced a significant amount of sampling noise (FIG. 14). Although the action potential was subsampled at just 50 Hz, there is still a reliable transient in the optical trace that indicates the time when an action potential occurs, which is often what is needed.
Isolated midbody ganglia (Ganglia 8-16) were dissected from Hirudo medicinalis and the ventral side was desheathed using standard procedures. […]
Imaging was done with a Cascade 128+ EMCCD camera (Photometrics). […] The fluorescence illumination was from an LED that has its peak excitation wave-length in the excitation range for FITC. […] The data is stored in Matlab-readable files.

SMILES	voltage sensitivity ΔF/F per 100 mV [1] [%]	optical recording versus electrical recording of spontaneous activity [2]	sensitivity, fractional fluorescence change (ΔF/F) versus change in membrane potential ([1]; HEK cells, holding potential −60 mV)
CN(C)c1ccc(/C=C/c2ccc(/C=C/c3ccc(-c4c5cc(Cl)c(=O)cc-5oc5cc(O)c(Cl)cc45)c(S(=O)(=O)O)c3)cc2)cc1 [VF2.1.Cl, 5-(4-(4-(dimethyllamino)styryl)styryl)-2-(2,7-dichloro-6-hydroxy-3-oxo-3H-xanthen-9-yl)benzenesulfonic acid]	27±1	near-perfect matching of the subthreshold membrane potential; also recorded: faithfully followed the subthreshold fluctuations	–
CCCCN(CCCC)c1ccc(/C=C/c2ccc(/C=C/c3ccc(-c4c5cc(Cl)c(=O)cc-5oc5cc(O)c(Cl)cc45)c(S(=O)(=O)O)c3)cc2)cc1 [VF2.4.Cl, 5-(4-(4-(dibutylamino)styryl)styryl)-2-(2,7-dichloro-6-hydroxy-3-oxo-3H-xanthen-9-yl)benzenesulfonic acid]	25±1	–	0.25±0.01 % per mV and 0.25 % per mV

From patent publication US11187660B2, “Fluorescent probes for monitoring voltage by photo-induced electron transfer” (The Regents of the University of California, priority 2011, dated 2021)
